This note sets out measurements from ChEMBL document CHEMBL1152504, “Design and synthesis of membrane fusion inhibitors against the feline immunodeficiency virus” (Bioorg Med Chem, 2009).

Test [1] can be described thus: Inhibition of Feline immunodeficiency virus Shizuoka envelope glycoprotein gp40 assessed as inhibition of HR1-HR2 interaction after 1.5 hrs by ELISA.
The next test relates to MT4. In words: Inhibition of Feline immunodeficiency virus envelope glycoprotein 40-mediated cell fusion between virus-transfected feline thymic lymphoma 3201 cells and human MT4 cells at 10 uM after 7 days. It counts as cell-based.
The nature of test [2]: Inhibition of Feline immunodeficiency virus Petaluma envelope glycoprotein gp40 assessed as inhibition of HR1-HR2 interaction after 1.5 hrs by ELISA.
A short description of test [3]: Inhibition of Feline immunodeficiency virus UK8 envelope glycoprotein gp40 assessed as inhibition of HR1-HR2 interaction after 1.5 hrs by ELISA.
The nature of test [4]: Inhibition of Feline immunodeficiency virus Sendai-1 envelope glycoprotein gp40 assessed as inhibition of HR1-HR2 interaction after 1.5 hrs by ELISA.

Active and inactive are the calls of the source. The rule behind the calls is not given here. Bounds are passed on as bounds.

On to `CC[C@H](C)[C@H](NC(=O)CNC(=O)[C@H](CCC(=O)O)NC(=O)[C@H](CCC(=O)O)NC(=O)CNC(=O)[C@H](CCCCN)NC(=O)[C@H](CCCCN)NC(=O)[C@H](CC(N)=O)NC(=O)[C@H](CC(N)=O)NC(=O)[C@H](CCC(=O)O)NC(=O)[C@H](CCC(=O)O)NC(=O)[C@@H](NC(=O)[C@H](CCCCN)NC(=O)[C@H](CCCCN)NC(=O)[C@@H](NC(=O)[C@@H](NC(=O)[C@H](CCC(=O)O)NC(=O)[C@H](CCC(=O)O)NC(=O)[C@H](Cc1ccccc1)NC(=O)[C@H](CCCCN)NC(=O)[C@H](CCCCN)NC(=O)[C@H](CCC(N)=O)NC(=O)[C@H](CC(C)C)NC(=O)[C@H](CCC(=O)O)NC(=O)[C@H](CCC(=O)O)NC(=O)[C@@H](NC(=O)[C@H](CCCCN)NC(=O)[C@H](CCCCN)NC(=O)[C@H](Cc1ccc(O)cc1)NC(=O)[C@H](Cc1c[nH]c2ccccc12)NC(=O)[C@H](CCC(=O)O)NC(=O)[C@H](CCC(=O)O)NC(=O)[C@@H](N)CC(C)C)[C@@H](C)O)[C@@H](C)CC)[C@@H](C)CC)[C@@H](C)CC)C(=O)N[C@@H](CCCCN)C(=O)N[C@@H](CCCCN)C(=O)O`, for which the IC50 was 0.0785 µM in test [1], 0.0516 µM in test [2], 0.00933 µM in test [3] and 0.00887 µM in test [4]. Also, in the test on MT4, the outcome was Active.
Consider “H-NEELGKKYEETKKKQEEFYKKIEEIEKKNEEVKKKLEELQKK-OH”, for which the IC50 in test [2] amounted to 0.169 µM.
With “H-LEEWYKKTEELQKKFEEIIKKIEENNKKVEEGLKK-OH”, the IC50 was determined as 0.115 µM in test [1], 0.0166 µM in test [2], 0.00539 µM in test [3] and 0.0226 µM in test [4].
For “H-LGEWYNQTKELQQKFYEIIMNIEQNNVQVKKGLQQ-OH”, in that order: 6.31 µM, 0.708 µM, 0.724 µM and 0.646 µM.
As for “H-LRDWYNNTQQLQKKFYEIIYDIEQNNVQGKQGLQQ-OH”, the IC50 in test [1] is 2.51 µM; in test [2], 0.195 µM; in test [3] it was 0.182 µM; in test [4] it was 0.0372 µM.
Regarding “H-GEETLKKWEEQTKKLEEKFKKIEENIKKNEEQVKKGEEQLKK-OH”, the IC50 in test [2] was greater than 10 µM.
On to “H-LGEWYNQTKDLQQKFYEIIMDIEQNNVQGKKGIQQ-OH”, for which the IC50 in test [1] came to 6.31 µM; in test [2], 1.26 µM; in test [3], 0.513 µM; in test [4] it was 0.183 µM. Further, in the test with MT4, the outcome was Active.
“H-LGEWYNQTKGLQQKFYEIIMDIEQNSVQGKKGIQQ-OH”: the IC50 is greater than 10 µM in test [1], 2.4 µM in test [2], greater than 10 µM in test [3] and 0.437 µM in test [4].
“H-LEEWYKKTEELQKKFEEIIKKIEENSKKGEEGIKK-OH”: the IC50 in test [1] turned out to be 0.203 µM; in test [2] it was 0.2 µM; in test [3], 0.443 µM; in test [4], 0.0424 µM.
Consider “H-LEEWYKKTEELQKKFEEIIKKIEENNKKGEEGLKK-OH”, for which the IC50 was 0.0197 µM in test [1], 0.0128 µM in test [2], 0.00338 µM in test [3] and 0.00253 µM in test [4].
Regarding “H-WEEWDKKIEEYTKKIEELIKKSEEQQKKNEEELKK-OH”, in test [2], the IC50 was greater than 10 µM.
